Data on 9 compounds can be found in the supplement of paper PMC9663587.

Among the test systems are SKBR3; MCF7; PDX1258; BT474; HCC1395; MDAMB361; SUM149; PDX1328; ZR7530; MDAMB415; HCC202; MDAMB468.
What all share (assay): GRmax, 72 h; higher = less effect;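 also: breast cell lines in 384-well plates, nine doses across a 10^4 range, Dye Drop imaging of viable cells vs DMSO and time-zero plates, GR 0 means no net growth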

With `COc1cc2nccc(Oc3ccc(NC(=O)C4(C(=O)Nc5ccc(F)cc5)CC4)cc3)c2cc1OC` [Cabozantinib] (max 10 µM), the “GRmax, 72 h” value is 0.442 GR with SKBR3; -0.0993 GR in the assay on MCF7; 0.28 GR in the assay with PDX1258; 0.647 GR in the assay on BT474; 0.114 GR with HCC1395; 0.662 GR with MDAMB361. The “GRmax, 72 h” value in the assay on SUM149 came to 0.3 GR; in the assay on PDX1328 it was 0.251 GR; in the assay on ZR7530, 0.449 GR; with MDAMB415, 0.412 GR; with HCC202, 0.731 GR; in the assay with MDAMB468 it was 0.423 GR.

As for `COc1cc2c(Oc3ccc4[nH]c(C)cc4c3F)ncnc2cc1OCCCN1CCCC1` [Cediranib/AZD2171] (max 10 µM), the “GRmax, 72 h” value was -0.54 GR in the assay with SKBR3; 0.115 GR in the assay on MCF7; -0.561 GR in the assay with PDX1258; 0.742 GR with BT474; -0.482 GR with HCC1395; -0.98 GR in the assay on MDAMB361. The “GRmax, 72 h” value in the assay on SUM149 is 0.0682 GR; with PDX1328, -0.544 GR; in the assay with ZR7530 it was -0.145 GR; in the assay with MDAMB415, -0.208 GR; in the assay on HCC202 it was 0.364 GR; in the assay with MDAMB468 it was -0.708 GR.

For the compound `Cc1cc(Nc2ncc(Cl)c(Nc3ccccc3S(=O)(=O)C(C)C)n2)c(OC(C)C)cc1C1CCNCC1` [Ceritinib/LDK378] (max 10 µM), the “GRmax, 72 h” value was -0.825 GR in the assay with SKBR3; -0.616 GR in the assay on MCF7; -0.684 GR in the assay on PDX1258; 1.18 GR in the assay with BT474; -0.627 GR with HCC1395; -0.991 GR in the assay with MDAMB361. In addition, the “GRmax, 72 h” value with SUM149 was -0.438 GR; with PDX1328, -0.943 GR; in the assay with ZR7530 it was 0.416 GR; in the assay with MDAMB415, -0.975 GR; in the assay on HCC202, -0.803 GR; with MDAMB468, -0.742 GR.

In the case of `N.N.[Cl][Pt][Cl]` [Cisplatin] (max 10 µM), the “GRmax, 72 h” value in the assay on SKBR3 is 0.249 GR; in the assay on MCF7, 0.475 GR; in the assay with PDX1258 it was 0.318 GR; in the assay on HCC1395 it was -0.222 GR; in the assay on MDAMB361, -0.35 GR; with SUM149, -0.229 GR. Also, the “GRmax, 72 h” value in the assay with PDX1328 was -0.422 GR; in the assay on MDAMB468 it was -0.287 GR.

As for `Cc1nc(Nc2ncc(C(=O)Nc3c(C)cccc3Cl)s2)cc(N2CCN(CCO)CC2)n1` [Dasatinib] (max 10 µM), the “GRmax, 72 h” value in the assay with SKBR3 was 0.081 GR; in the assay with MCF7, 0.157 GR; in the assay with PDX1258, -0.134 GR; with BT474, -0.42 GR; in the assay on HCC1395, -0.337 GR; in the assay on MDAMB361 it was 0.0805 GR. Further, the “GRmax, 72 h” value is -0.172 GR with SUM149; -0.401 GR in the assay on PDX1328; -0.0607 GR in the assay on ZR7530; 0.342 GR with MDAMB415; -0.197 GR in the assay with HCC202; 0.339 GR with MDAMB468.

As for `COc1cccc2c1C(=O)c1c(O)c3c(c(O)c1C2=O)C[C@@](O)(C(=O)CO)C[C@@H]3O[C@H]1C[C@H](N)[C@H](O)[C@H](C)O1` [Doxorubicin] (max 3.162 µM), the “GRmax, 72 h” value in the assay on SKBR3 was -0.616 GR; with MCF7, -0.286 GR; in the assay with PDX1258 it was -0.493 GR; with BT474, -0.605 GR; in the assay with HCC1395, -0.417 GR; in the assay on MDAMB361, -0.722 GR. Also, the “GRmax, 72 h” value is -0.321 GR with SUM149; -0.739 GR with PDX1328; -0.274 GR in the assay with ZR7530; -0.423 GR with MDAMB415; 0.245 GR in the assay with HCC202; -0.339 GR with MDAMB468.

Consider `COc1cc([C@@H]2c3cc4c(cc3[C@@H](O[C@@H]3O[C@@H]5CO[C@@H](C)O[C@H]5[C@H](O)[C@H]3O)[C@H]3COC(=O)[C@H]23)OCO4)cc(OC)c1O` [Etoposide] (max 10 µM), for which the “GRmax, 72 h” value was -0.317 GR in the assay with SKBR3; -0.0441 GR in the assay on MCF7; -0.181 GR in the assay with PDX1258; -0.225 GR with HCC1395; -0.517 GR in the assay with MDAMB361; -0.196 GR in the assay on SUM149. Besides, the “GRmax, 72 h” value with PDX1328 is -0.281 GR; in the assay on MDAMB468, -0.513 GR.

On to `CO[C@H]1C[C@@H]2CC[C@@H](C)[C@@](O)(O2)C(=O)C(=O)N2CCCC[C@H]2C(=O)O[C@H]([C@H](C)C[C@@H]2CC[C@@H](OCCO)[C@H](OC)C2)CC(=O)[C@H](C)/C=C(\C)[C@@H](O)[C@@H](OC)C(=O)[C@H](C)C[C@H](C)/C=C/C=C/C=C/1C` [Everolimus] (max 10 µM), for which the “GRmax, 72 h” value came out at 0.118 GR in the assay on SKBR3; 0.387 GR in the assay on MCF7; 0.631 GR in the assay on PDX1258; 0.14 GR with BT474; 0.404 GR in the assay with HCC1395; 0.0574 GR with MDAMB361. The “GRmax, 72 h” value in the assay with SUM149 amounted to 0.737 GR; with PDX1328 it was 0.371 GR; in the assay on ZR7530, 0.169 GR; in the assay with MDAMB415, 0.0852 GR; with HCC202 it was 0.474 GR; with MDAMB468 it was 0.527 GR.

Take `CC[C@@]1(O)C(=O)OCc2c1cc1n(c2=O)Cc2cc3c(CN(C)C)c(O)ccc3nc2-1` [Topotecan] (max 10 µM): the “GRmax, 72 h” value with SKBR3 is -0.271 GR; in the assay on MCF7, -0.271 GR; in the assay with PDX1258, -0.457 GR; in the assay with HCC1395 it was -0.584 GR; in the assay with MDAMB361, -0.762 GR; in the assay on SUM149, -0.46 GR. In addition, the “GRmax, 72 h” value with PDX1328 is -0.913 GR; with MDAMB468, -0.658 GR.
